The record followed here is patent USRE36374E, “1,2,3-triazole and tetrazole substituted piperidine or tetrahydropyridine compounds useful as acetylcholine agonists” (priority 1987, dated 1999).

Experiment [1] has as its target central cholinergic receptors. As to the kind of experiment: 3H-oxotremorine-M (Oxo-M) displacement from rat brain homogenates. It counts as binding. As to conditions: displacement of 3H-oxotremorine-M, pH 7.4, 40 min, 30° C. The protocol:
(§1) Affinity to central cholinergic receptors in vitro was measured as the ability of the compounds to displace ^3 H-oxotremorine-M (Oxo-M) from rat brain homogenates, while affinity to central muscarinic M-1-receptors in vitro was measured as the ability of the compounds to displace ^3 H-pirenzepin (Pz) from rat brain homogenates.
^3 H-oxotremorine M binding
was performed essentially as described by Birdsdall et al., 1980. Briefly, rat brains were homogenized in 100 vol (w/v) 10 mM Na,K-phosphate buffer (pH 7.4) and aliquots incubated with ^3 H-oxotremorine M (84.9 Ci/m-mol, NEN) alone or in the presence of test compound in a total volume of 1.5 ml for 40 min. at 30° C. The reaction was stopped by adding 5 ml cold buffer and filtered through Whatman GF/B filters soaked previously in 0.1% polyethylenimin (Sigma) for minimum 30 min. The filters were washed once with the same volume of buffer, transferred to scintillation vials and extracted in scintillation fluid (Pico-fluor 15, Packard) for at least two hours before counted in a liquid scintillation spectrometer (Beckman LS 1800). Non-specific binding was estimated at 10 μM atropine and all estimations made in triplicate. At least two displacement curves were made for each compound tested.
Birdsdall N. J. M., Hulme E. C., and Burgen A. S. V. (1980). "The Character of Muscarinic Receptors in Different Regions of the Rat Brain". Proc. Roy. […] London (Series B) 207, 1.
(Displacement assays read how much labelled ligand stays bound in the presence of the test substance.)

The target in experiment [2] is T1, central muscarinic M-1-receptors (Rattus norvegicus, UniProt P08482).
T1 sequence (P08482 1-460): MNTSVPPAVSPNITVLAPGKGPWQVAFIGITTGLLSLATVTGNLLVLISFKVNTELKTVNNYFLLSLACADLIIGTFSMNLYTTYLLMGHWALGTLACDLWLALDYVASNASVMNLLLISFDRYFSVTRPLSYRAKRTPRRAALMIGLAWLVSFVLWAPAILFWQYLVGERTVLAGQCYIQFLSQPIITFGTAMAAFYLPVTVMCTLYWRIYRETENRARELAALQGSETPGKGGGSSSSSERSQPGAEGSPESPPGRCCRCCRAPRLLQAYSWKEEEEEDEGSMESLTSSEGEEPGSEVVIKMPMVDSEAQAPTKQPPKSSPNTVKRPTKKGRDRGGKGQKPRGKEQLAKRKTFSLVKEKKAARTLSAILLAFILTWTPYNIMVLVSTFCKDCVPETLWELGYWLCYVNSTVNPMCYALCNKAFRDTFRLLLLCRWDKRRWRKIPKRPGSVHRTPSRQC
The experiment is described as follows: 3H-pirenzepine (Pz) displacement from rat brain homogenates. It counts as binding. The protocol: as §1
was performed essentially as described by Watson et al., 1983, the conditions being very much the same as for ^3 H-oxotremorine binding, except that aliquots were incubated with 1.0 nM ^3 H-pirenzepine for 60 min. at 25° C. and that the reaction was stopped by direct filtration followed by 3 washes with 4 ml buffer.
Watson, M., Yamamura, H. I., and Roeske, W. R. (1983). "A unique regulatory profile and regional distribution of ^3 H-pirenzepin binding in the rat provide evidence for distinct M1 and M2 muscarinic receptor subtypes". Life Sci. 32 (1983) 3001-3011.

The mark [3] stands for this setting: displacement of 1.0 nM 3H-pirenzepine, rat brain homogenates, 60 min, 25° C, read-out: Pz, IC50.

pIC50: −log10 of the molar value. Counter-ions that a name gives are not always drawn. Like-named read-outs stand apart in the source and are kept apart here.

Consider `Cn1cnc(C2=CCCNC2)n1` [Compound 60, 1-Methyl-3-(1,2,5,6-tetrahydro-3-pyridyl-1,2,4-triazole, dihydrobromide], for which the pIC50 (as a rule, the IC50 on a negative log10 scale, so that one unit is a factor of ten) was 5.85 in experiment [1] and 5.31 in experiment [2] (setting [3]).

With `CSc1cnc(C2=CCCN(C)C2)s1` [Compound 93, 5-Methylthio-2-(1-methyl-1,2,5,6-tetrahydro-3-pyridyl)-thiazole, fumarate], the values for the pIC50 in experiment [1] and in experiment [2] (setting [3]) were 7.74 and 6.89, respectively.

With `CC(C)n1nnc(C2=CCCN(C)C2)n1` [Compound 16, 2-Isopropyl-5-(1-methyl-1,2,5,6-tetrahydro-3-pyridyl)-2H-tetrazole, fumarate], the figures for the pIC50 in experiment [1] and in experiment [2] (setting [3]) were 6.92 and 6.89, respectively.

In the case of `C#CCn1nnc(C2=CCCNC2)n1` [Compound 22, 2-(2-Propynyl)-5-(1,2,5,6-tetrahydropyridyl)-2H-tetrazole, hydrochloride], the pIC50 in experiment [2] (setting [3]) was 6.42.

On to `Cc1cc(C2=CCCN(C)C2)nn1C` [Compound 95, 1,5-Dimethyl-3-(1-methyl-1,2,5,6-tetrahydro-3-pyridyl)-pyrazole, dihydrochloride], for which the pIC50 in experiment [1] was 6.46; in experiment [2] (setting [3]) it was 6.74.

In the case of `CN1CCC=C(c2ncn(C)n2)C1` [Compound 59, 1-Methyl-3(1-methyl-1,2,5,6-tetrahydro-3-pyridyl)-1,2,4-triazole, hemifumarate], the results for the pIC50 in experiment [1] and in experiment [2] (setting [3]) were 6.55 and 6.21, respectively.

On to `CN1CCC=C(c2nnn(C)n2)C1` [Compound 10, 2-Methyl-5-(1-methyl-1,2,5,6-tetrahydro-3-pyridyl)2H-tetrazole], for which the pIC50 was 8.06 in experiment [1] and 6.41 in experiment [2] (setting [3]).

For `Cc1cnc(C2=CCCNC2)s1` [Compound 91, 5-Methyl-2-(1,2,5,6-tetrahydro-3-pyridyl)-thiazole, fumarate], the pIC50 in experiment [1] is 6.44; in experiment [2] (setting [3]), 6.00.

With `CC1=C(c2nnn(C)n2)CN(C)CC1` [Compound 38, 2-Methyl-5(1,4-dimethyl-1,2,5,6-tetrahydro-3-pyridyl)-2H-tetrazole, oxalate], the pIC50 in experiment [1] is 6.00; in experiment [2] (setting [3]) it was 5.92.

For the compound `Cc1cnc(C2=CCCN(C)C2)o1` [Compound 75, 5-Methyl-2-(1-methyl-1,2,5,6-tetraydro-3-pyridyl)-oxazole, oxalate], the pIC50 in experiment [1] is 7.24; in experiment [2] (setting [3]), 6.43.

Regarding `C=C=Cn1nnc(C2=CCCNC2)n1` [Compound 23, 2-Allenyl-5-(1,2,5,6-tetrahydro-3-pyridyl)-2H-tetrazole, hydrochloride], the pIC50 in experiment [1] was 6.85; in experiment [2] (setting [3]), 5.96.

`CN1CCCC(c2nnn(C)n2)C1` (stereo not drawn) [Compound 14, 2-Methyl-5-methyl-3-piperidyl)-2H-tetrazole, oxalate]: the results for the pIC50 in experiment [1] and in experiment [2] (setting [3]) were 5.77 and 5.13, respectively.

Consider `CC1CC=C(c2nnn(C)n2)CN1` (stereo not drawn) [Compound 30, 2-Methyl-5-(6-methyl-1,2,5,6-tetrahydro-3-pyridyl)-2H-tetrazole, hydrobromide], for which the pIC50 in experiment [1] was 6.60; in experiment [2] (setting [3]), 5.85.

As for `COc1cnc(C2=CCCN(C)C2)o1` [Compound 80, 5-Methoxy-2-(1-methyl-1,2,5,6-tetrahydro-3-pyridyl)-oxazol, oxalate], the pIC50 in experiment [2] (setting [3]) was 5.82.

For the compound `CC1CC=C(c2nnn(C(C)C)n2)CN1` (stereo not drawn) [Compound 33, 2-Isopropyl-5-(6-methyl-1,2,5,6-tetraydro-3-pyridyl)-2H-tetrazole, hydrobromide], the negative-log IC50 (pIC50) in experiment [1] is 6.49; in experiment [2] (setting [3]), 6.05.

Consider `CC1CC=C(c2nnn(C(C)C)n2)CN1C` (stereo not drawn) [Compound 34, 2-Isopropyl-5-(1,6-dimethyl-1,2,5,6-tetrahydro-3-pyridyl)-2H-tetrazole], for which the pIC50 in experiment [1] is 6.74; in experiment [2] (setting [3]) it was 6.46.

Take `Cn1nnc(C2CCCNC2)n1` (stereo not drawn) [Compound 13, 2-Methyl-(3-piperidyl)-2H-tetrazole, hydrochloride]: the pIC50 is 7.33 in experiment [1] and 5.44 in experiment [2].

In the case of `Cc1cnc(C2=CCCNC2)o1` [Compound 76, 5-Methyl-2-(1,2,5,6-tetrahydro-3-pyridyl)-oxazole, fumarate], the pIC50 in experiment [1] is 6.72; in experiment [2] (setting [3]), 5.89.

For the compound `Cc1cc(C2=CCCNC2)no1` [Compound 55, 5-Methyl-3-(1,2,5,6-tetrahydro-3-pyridyl)-isoxazole, hydrochloride], the negative-log IC50 (pIC50) in experiment [1] is 6.00; in experiment [2] (setting [3]), 5.60.

Consider `CC(C)n1nnc(C2=CCCNC2)n1` [Compound 17, 2-Isopropyl-5-(1,2,5,6-tetrahydro-3-pyridyl)-2H-tetrazole, hydrobromide], for which the pIC50 in experiment [1] is 6.55; in experiment [2] (setting [3]) it was 6.32.

For the compound `CC1C=C(c2nnn(C)n2)CNC1` (stereo not drawn) [Compound 47, 2-Methyl-5-(5-methyl-1,2,5,6-tetrahydro-3-pyridyl)-2H-tetrazole, hydrobromide], the pIC50 in experiment [1] was 7.01; in experiment [2] (setting [3]), 6.55.

In the case of `CC1C=C(c2nnn(C)n2)CN(C)C1` (stereo not drawn) [Compound 48, 2-Methyl-5-(1,5-dimethyl-1,2,5,6-tetrahydro-3-pyridyl)-2H tetrazole, oxalate], the figures for the pIC50 in experiment [1] and in experiment [2] (setting [3]) were 6.17 and 5.74, respectively.

As for `CCn1nnc(C2=CCCNC2)n1` [Compound 19, 2-Ethyl-5-(1,2,5,6-tetraydro-3-pyridyl)-2H-tetrazole, hydrobromide], the pIC50 in experiment [1] was 7.49; in experiment [2] (setting [3]) it was 5.82.

As to `CCn1nnc(C2=CCCN(C)C2)n1` [Compound 20, 2-Ethyl-5-(1-methyl-1,2,5,6-tetrahydro-3-pyridyl)-2H-tetrazole, oxalate], the figures for the pIC50 in experiment [1] and in experiment [2] (setting [3]) were 7.80 and 6.89, respectively.

Turning to `CN1CCC=C(C2=NC(C)(C)CO2)C1` [Compound 87, 4,4-Dimethyl-2-1-methyl-1,2,5,6-tetrahydro-3-pyridyl)-oxazoline, fumarate], the negative logarithm of the IC50 (pIC50) in experiment [1] is 6.89; in experiment [2] (setting [3]), 6.40.

With `CC1=C(c2nnn(C)n2)CNCC1` [Compound 39, 2-Methyl-5-(4-methyl-1,2,5,6-tetrahydro-3-pyridyl)-2H-tetrazole, 0.75 oxalate], the pIC50 in experiment [1] was 6.09; in experiment [2] (setting [3]), 5.82.

`COc1cnc(C2=CCCNC2)o1` [Compound 81, 5-Methoxy-2-(1,2,5,6-tetrahydro-3-pyridyl)-oxazole, 1.25 fumarate]: the values for the pIC50 in experiment [1] and in experiment [2] (setting [3]) were 6.66 and 5.38, respectively.

As for `Cn1nnnc1C1=CCCNC1` [Compound 9, 1-Methyl-5(1,2,5,6-tetrahydro-3-pyridyl)-2H-tetrazole, fumarate], the pIC50 in experiment [1] is 5.49; in experiment [2] (setting [3]) it was 4.57.

As to `CN1CCC=C(c2cnn(C)n2)C1` [Compound 70, 2-Methyl-4-(1-methyl-1,2,5,6-tetrahydro-3-pyridyl)-1,2,3-triazole, 1.5 fumarate], the pIC50 in experiment [1] is 8.96; in experiment [2] (setting [3]), 8.26.

As to `Cc1nc(C2=CCCNC2)nn1C` [Compound 64, 1,5Dimethyl-3-(1,2,5,6-tetrahydro-3-pyridyl)-1,2,4-triazole, dihydrobromide, dihydrate], the pIC50 in experiment [1] was 5.68; in experiment [2] (setting [3]), 5.62.

Regarding `Cc1nc(C2=CCCN(C)C2)nn1C` [Compound 63, 1,5-Dimethyl-3-(1-methyl-1,2,5,6-tetraydro-3-pyridyl)-1,2,4-triazole, fumarate], the values for the pIC50 in experiment [1] and in experiment [2] (setting [3]) were 6.15 and 6.80, respectively.

As for `Cn1ncc(C2=CCCNC2)n1` [Compound 72, 2-Methyl-4-(1,2,5,6-tetrahydro-3-pyridyl)-1,2,3-triazole, fumarate], the figures for the pIC50 in experiment [1] and in experiment [2] (setting [3]) were 9.32 and 6.10, respectively.

As for `Cc1cnc(C2=CCCN(C)C2)s1` [Compound 90, 5-Methyl-2-(1-methyl-1,2,5,6-tetrahydro-3-pyridyl)-thiazole, hemifumarate], the results for the pIC50 in experiment [1] and in experiment [2] (setting [3]) were 6.74 and 6.38, respectively.

`Cc1coc(C2=CCCNC2)n1` [Compound 85, 4-Methyl-2-(1,2,5,6-tetrahydro-3-pyridyl)-oxazole, fumarate]: the pIC50 in experiment [1] was 8.12; in experiment [2] (setting [3]), 5.85.
